From patent US12144795B2, “Cannabidiol compositions having modified cannabinoid profiles” (priority 2018, dated 2024)
≈ marks a conversion by molar mass, not a printed value. Read-outs that look alike come from different tables or passages of the source.

Assays:
[1] = Stress stability tests of CBD (acidic, alkaline, oxidative, light, heat, humidity; UPLC, LC-MS, PDA-UV); type: physicochemical
Method: Cannabidiol samples obtained by Protocol 1 were subjected to acidic, alkaline, and oxidizing conditions in order to achieve a degradation of at least 3% or a change in appearance. The impact of light, heat, and humidity on the stability of the drug substance was investigated. The assay and purity of samples were analyzed by UPLC. The identity of unknown impurities was examined by LC-MS. The peak purity of cannabidiol after exposure to stress conditions was investigated by comparing the PDA-UV spectrum (photodiode array-ultraviolet) of cannabidiol with the spectrum of the unstressed sample and in addition by LC-MS analysis of the cannabidiol peak. The assay of the unstressed sample in FIG. 15A and FIG. 15B was used as a reference to calculate the extent of degradation of CBD under the representative stress conditions: Degradation of CBD=(1−[assay of stressed sample]/[assay unstressed sample])*100% […]
In a 20 ml GC headspace vial, 150 mg of CBD was suspended in 8 mL of 0.1 M sodium hydroxide and heated to T=80° C. for 2 h, 4 h and 6 h, respectively. […]

[2] = Crash cooling crystallization, XRPD before and after AAC; type: physicochemical; conditions: for Dissolved at start / Solids after T profile / Solid form by HT-XRPD Evaporation of ML Before: 50 mg/mL
Method: As a variation on the above cooling crystallization experiments, several crash cooling crystallization were performed. In order to modulate the solubility of cannabidiol, crash cooling experiments were performed in solvent mixtures. Clear solutions of 50 mg/mL of cannabidiol were prepared in solvent mixtures and rapidly cooled in an ice bath. Vials were then placed at −20° C. for 48 hours. Precipitated solids and mother liquors were treated as described above for the ordinary cooling crystallization experiments. Only from heptane/pentane cooling did there result in the precipitation of a solid. […] When no XRPD record was generated, the field is defined as “Not Applicable” (N/A) in Table 29.

[3] = Crystallization by single solvent drop grinding, HT-XRPD before and after AAC; type: physicochemical
Method: For the grinding experiments, 40 mg cannabidiol was placed in a stainless steel container with 10 μL solvent and two steel beads. The vials were shaken for 1 hour at 30 Hz, after which the solids were collected for XRPD analysis. All of the samples were classified as Form A based on HT-XRPD analysis.

[4] = Cannabidiol solubility in neat solvents and mixtures, isooctane solubility curve; type: physicochemical; conditions: for solubility: read-out: Solubility at RT
Text: Isooctane was selected as the final crystallization solvent due the low solubility and similar properties to heptane, i.e., low viscosity and boiling point relative to other higher hydrocarbons (Table 33). Based on the solubility and desire to maximize yield, an isooctane volume of 4.0 L/kg was selected as an appropriate crystallization concentration. Prior to crystallization, it was desired to fully dissolve the CBD in isooctane and filter the process stream. […] The isolation temperature of −20° C. was chosen to maximize the yield of the CBD from the final crystallization.

[5] = Stability studies of CBD prepared via Protocol 3 (crude, pure, 2x recrystallized; 5° C., 25° C./60% RH, 40° C./75% RH); type: physicochemical
[6] = Solubility of CBD in crude CBD mother liquor and heptane as a function of temperature (Crystal 16); conditions: CBD concentration of ca. 296 mg/ml (3.5 L/kg), crude CBD mother liquor
Text: To determine an appropriate seeding temperature of CBD, a Crystal 16 instrument was employed to measure the solubility in crude CBD mother liquor, a mixture of heptane and process impurities, and pure heptane.

C=C(C)[C@@H]1CCC(C)=C[C@H]1c1c(O)cc(CCCCC)cc1O [CBD, (1′R,2′R)-5′-methyl-4-pentyl-2′-(prop-1-en-2-yl)-1′,2′,3′,4′-tetrahydro-[1,1′-biphenyl]-2,6-diol]
Appearance after stress ([1]; 0.1 M hydrochloric acid, 80° C., 2 h, 4 h and 6 h): suspension of yellowish melted CBD in a clear colorless aqueous solution | Appearance after stress ([1]; 0.1 M sodium hydroxide, 80° C., 2 h, 4 h and 6 h): suspension of yellowish melted CBD in a violet aqueous solution | Appearance after stress ([1]; 24 h at 75% r.h.): did not change its appearance | Proposed main degradation products(s) ([1]; Acidic, 80° C.): D9-THC | Degradation of CBD ([1]; Acidic, 6 h, 80° C. (0.1 M hydrochloric acid)): 4% | Proposed main degradation products(s) ([1]; Alkaline stress): several isomers of CBQ | Degradation of CBD ([1]; Alkaline stress, stock solution at the time of the LC-MS analysis): > 80% | Proposed main degradation products(s) ([1]; Heat, 100° C. for 24 h): Hydroxy-CBD and Hydroxy-CBQ | Degradation of CBD ([1]; Heat, 24 h, 100° C.): 1% | Proposed main degradation products(s) ([1]; Humidity, 24 h, 24° C.): No prominent degradation product | Degradation of CBD ([1]; Humidity, 24 h, 24° C. (75% r.h.)): 0% | Degradation of CBD ([1]; Light, 24 h 24° C.): 1% | Proposed main degradation products(s) ([1]; Light, 24 h 24° C.): No prominent degradation product | Proposed main degradation products(s) ([1]; Oxidative stress (H2O2)): Hydroxy-CBD (CBD-OH) | Degradation of CBD ([1]; Oxidative, 6 h 80° C. (hydrogen peroxide 0.3% w/w)): 3% | Degradation of CBD ([1]; elevated temperatures lower than 100° C.): no significant degradation | Appearance after stress ([1]; heated to 50° C. and 60° C. for 1 hour): turned slightly yellow but did not change their physical condition | Appearance after stress ([1]; heated to 70° C. for one hour): partially melted | Appearance after stress ([1]; heated to 80° C. or higher): fully melted and exhibited a yellow color | Appearance after stress ([1]; hydrogen peroxide (0.3% w/w), 80° C., 2 h, 4 h and 6 h): suspension of yellowish melted CBD in a clear colorless aqueous solution | Appearance after stress ([1]; irradiated with light 24 h, 24° C.): turned slightly yellow | Dissolved at start ([2]; 1,4-Dioxane/Water (80/20)): Yes | Solids after T profile ([2]; 1,4-Dioxane/Water (80/20)): No | Effect of accelerated aging conditions ([2]; 40° C./75% RH for two days): no effect on the physical appearance | Dissolved at start ([2]; Acetone/2,2,4-Trimethylpentane): Yes | Solids after T profile ([2]; Acetone/2,2,4-Trimethylpentane): No | Dissolved at start ([2]; Acetone/Water (80/20)): Yes | Solid form by HT-XRPD Evaporation of ML Before ([2]; Acetone/Water (80/20)): Oily | Solids after T profile ([2]; Acetone/Water (80/20)): No | Dissolved at start ([2]; Acetonitrile/Water (80/20)): Yes | Solids after T profile ([2]; Acetonitrile/Water (80/20)): No | Dissolved at start ([2]; Chloroform/Hexane (50/50)): Yes | Solids after T profile ([2]; Chloroform/Hexane (50/50)): No | Dissolved at start ([2]; Ethanol/2,2,4-Trimethylpentane): Yes | Solids after T profile ([2]; Ethanol/2,2,4-Trimethylpentane): No | Dissolved at start ([2]; Ethyl formate/Decane): Yes | Solid form by HT-XRPD Evaporation of ML Before ([2]; Ethyl formate/Decane): Oily | Solids after T profile ([2]; Ethyl formate/Decane): No | Dissolved at start ([2]; Heptane/Pentane (50/50)): Yes | Solids after T profile ([2]; Heptane/Pentane (50/50)): Yes | Dissolved at start ([2]; Isopropanol/Decane (50/50)): Yes | Solids after T profile ([2]; Isopropanol/Decane (50/50)): No | Dissolved at start ([2]; Tetrahydrofuran/Water (80/20)): Yes | Solid form by HT-XRPD Evaporation of ML Before ([2]; Tetrahydrofuran/Water (80/20)): Oily | Solids after T profile ([2]; Tetrahydrofuran/Water (80/20)): No | Polymorphic form of precipitated solid ([2]; heptane/pentane, crash cooling, −20° C. for 48 hours): same polymorphic form as the starting material Form A | Effect of accelerated aging conditions ([3]; AAC for two days): did not lead to any physical changes | Form by HT-XRPD analysis ([3]; ground 1 hour at 30 Hz with 10 μL solvent, all samples): Form A | solubility ([4]; 1,2-dimethoxyethane, organic solvent or mixture): > 100 mg/mL | solubility ([4]; 1,4-dioxane, organic solvent or mixture): > 100 mg/mL | solubility ([4]; 1-propanol, organic solvent or mixture): > 100 mg/mL | solubility ([4]; 2-butanone, organic solvent or mixture): > 100 mg/mL | solubility ([4]; 10/90 water/ethanol, organic solvent or mixture): > 100 mg/mL | solubility ([4]; 30/70 water/IPA, organic solvent or mixture): > 20 mg/mL | solubility ([4]; 30/70 water/ethanol, organic solvent or mixture): 20 to 70 mg/mL (≈ 63.6 to 223 mM) | Solubility at RT ([4]; 40/60 Water Methanol): oil | Solubility at RT ([4]; 45/65 Water Methanol): 3.4 mg/mL (≈ 10.8 mM) | Solubility at RT ([4]; 50/50 Water/Methanol): 0.3 mg/mL (≈ 0.954 mM) | solubility ([4]; 50/50 water/IPA, aqueous with cosolvent or surfactant or cyclodextrin): 10 to 20 mg/mL (≈ 31.8 to 63.6 mM) | solubility ([4]; 50/50 water/ethanol, aqueous with cosolvent or surfactant or cyclodextrin): < 5 mg/mL | solubility ([4]; ACN, organic solvent or mixture): > 100 mg/mL | solubility ([4]; CIP 100, aqueous with cosolvent or surfactant or cyclodextrin): < 1 mg/mL | solubility ([4]; CIP 200, aqueous with cosolvent or surfactant or cyclodextrin): < 1 mg/mL | solubility ([4]; DCM, organic solvent or mixture): > 100 mg/mL | solubility ([4]; EtOAc, organic solvent or mixture): > 100 mg/mL | solubility ([4]; EtOH, organic solvent or mixture): > 100 mg/mL | solubility ([4]; IPA, organic solvent or mixture): > 100 mg/mL | solubility ([4]; IPOAc, organic solvent or mixture): > 100 mg/mL | solubility ([4]; MTBE, organic solvent or mixture): > 100 mg/mL | solubility ([4]; MeOH, organic solvent or mixture): > 100 mg/mL | solubility ([4]; MeTHF saturated with water, organic solvent or mixture): > 100 mg/mL | solubility ([4]; MeTHF, organic solvent or mixture): > 100 mg/mL | solubility ([4]; NMPO, organic solvent or mixture): > 100 mg/mL | solubility ([4]; THF, organic solvent or mixture): > 100 mg/mL | solubility ([4]; acetone, organic solvent or mixture): > 100 mg/mL | solubility ([4]; anisole, organic solvent or mixture): > 100 mg/mL | solubility ([4]; chloroform, organic solvent or mixture): > 100 mg/mL | solubility ([4]; cumene, organic solvent or mixture): > 100 mg/mL | solubility ([4]; cyclohexane, organic solvent or mixture): > 100 mg/mL | solubility ([4]; diethyl ether, organic solvent or mixture): > 100 mg/mL | solubility ([4]; ethyl formate, organic solvent or mixture): > 100 mg/mL | solubility ([4]; heptane, organic solvent or mixture): 64.6 mg/mL (≈ 205 mM) | solubility ([4]; isobutanol, organic solvent or mixture): > 100 mg/mL | solubility ([4]; isooctane, organic solvent or mixture): 43.9 mg/mL (≈ 140 mM) | solubility ([4]; methylcyclohexane, organic solvent or mixture): > 100 mg/mL | solubility ([4]; n-decane, organic solvent or mixture): 36.8 mg/mL (≈ 117 mM) | solubility ([4]; n-hexane, organic solvent or mixture): > 100 mg/mL | solubility ([4]; p-xylene, organic solvent or mixture): > 100 mg/mL | solubility ([4]; silicone oil, oil or lipid, Silcone oil): 9.7 mg/mL (≈ 30.8 mM) | solubility ([4]; toluene, organic solvent or mixture): > 100 mg/mL | solubility ([4]; water): < 0.13 mg/mL | Hygroscopicity [5]: not hygroscopic | solubility temperature of CBD [6]: 29-30 °C
